Laboratory results reported in the CheMixHub ionic liquid set.
± gives the uncertainty stated by the source.

Test: xn = mol fraction of the nth substance listed

O=S(=O)([N-]S(=O)(=O)C(F)(F)F)C(F)(F)F.[Li+] + CC[n+]1ccn(C)c1.O=S(=O)([O-])C(F)(F)F + O
Conditions	electrical conductivity [S/m]	viscosity [mPa·s]
283 K, 101 kPa, x1 = 0.2649, x2 = 0.2649	0.36 ± 0.01	96.6 ± 2.2
283 K, 101 kPa, x1 = 0.4189, x2 = 0.2649	0.056 ± 0.001	–
283 K, 101 kPa, x1 = 0.5195, x2 = 0.3509	0.014 ± 0.001	–
293 K, 101 kPa, x1 = 0.2649, x2 = 0.2649	0.54 ± 0.01	60.2 ± 1.4
293 K, 101 kPa, x1 = 0.4189, x2 = 0.2649	0.1 ± 0.01	410 ± 14
293 K, 101 kPa, x1 = 0.5195, x2 = 0.3509	0.03 ± 0.001	–
293.15 K, 100 kPa, x1 = 0.2745, x2 = 0.3509	–	69.3 ± 7
293.15 K, 100 kPa, x1 = 0.3106, x2 = 0.3509	–	87 ± 8.9
293.15 K, 100 kPa, x1 = 0.3509, x2 = 0.3509	–	129 ± 13
293.15 K, 100 kPa, x1 = 0.3868, x2 = 0.3509	–	190 ± 21
293.15 K, 100 kPa, x1 = 0.4189, x2 = 0.3509	–	292 ± 33
293.15 K, 100 kPa, x1 = 0.4478, x2 = 0.3509	–	428 ± 51
293.15 K, 100 kPa, x1 = 0.474, x2 = 0.3509	–	611 ± 77
293.15 K, 100 kPa, x1 = 0.4978, x2 = 0.3509	–	880 ± 120
293.15 K, 100 kPa, x1 = 0.5195, x2 = 0.3509	–	1587 ± 230
298.1 K, 101 kPa, x1 = 0.2649, x2 = 0.2649	0.65 ± 0.01	48.9 ± 1.2
298.1 K, 101 kPa, x1 = 0.4189, x2 = 0.2649	0.14 ± 0.01	302 ± 9
298.1 K, 101 kPa, x1 = 0.5195, x2 = 0.3509	0.042 ± 0.001	1125 ± 51
298.15 K, 100 kPa, x1 = 0.2745, x2 = 0.3509	–	55 ± 5.5
298.15 K, 100 kPa, x1 = 0.3106, x2 = 0.3509	–	73.5 ± 7.4
298.15 K, 100 kPa, x1 = 0.3509, x2 = 0.3509	–	102 ± 11
298.15 K, 100 kPa, x1 = 0.3868, x2 = 0.3509	–	147 ± 16
298.15 K, 100 kPa, x1 = 0.4189, x2 = 0.3509	–	219 ± 24
298.15 K, 100 kPa, x1 = 0.4478, x2 = 0.3509	–	316 ± 36
298.15 K, 100 kPa, x1 = 0.474, x2 = 0.3509	–	439 ± 53
298.15 K, 100 kPa, x1 = 0.4978, x2 = 0.3509	–	618 ± 79
298.15 K, 100 kPa, x1 = 0.5195, x2 = 0.3509	–	1082 ± 150
303 K, 101 kPa, x1 = 0.2649, x2 = 0.2649	0.77 ± 0.02	40.2 ± 1
303 K, 101 kPa, x1 = 0.4189, x2 = 0.2649	0.17 ± 0.01	227 ± 6
303 K, 101 kPa, x1 = 0.5195, x2 = 0.3509	0.057 ± 0.001	789 ± 33
303.15 K, 100 kPa, x1 = 0.2745, x2 = 0.3509	–	44.4 ± 4.5
303.15 K, 100 kPa, x1 = 0.3106, x2 = 0.3509	–	59.3 ± 6
303.15 K, 100 kPa, x1 = 0.3509, x2 = 0.3509	–	81.4 ± 8.3
303.15 K, 100 kPa, x1 = 0.3868, x2 = 0.3509	–	115 ± 12
303.15 K, 100 kPa, x1 = 0.4189, x2 = 0.3509	–	166 ± 18
303.15 K, 100 kPa, x1 = 0.4478, x2 = 0.3509	–	238 ± 27
303.15 K, 100 kPa, x1 = 0.474, x2 = 0.3509	–	326 ± 38
303.15 K, 100 kPa, x1 = 0.4978, x2 = 0.3509	–	452 ± 55
303.15 K, 100 kPa, x1 = 0.5195, x2 = 0.3509	–	770 ± 100
313 K, 101 kPa, x1 = 0.2649, x2 = 0.2649	1.05 ± 0.02	28 ± 0.7
313 K, 101 kPa, x1 = 0.4189, x2 = 0.2649	0.27 ± 0.01	138 ± 3
313 K, 101 kPa, x1 = 0.5195, x2 = 0.3509	0.1 ± 0.01	418 ± 15
313.15 K, 100 kPa, x1 = 0.2745, x2 = 0.3509	–	30.6 ± 3.1
313.15 K, 100 kPa, x1 = 0.3106, x2 = 0.3509	–	40.1 ± 4
313.15 K, 100 kPa, x1 = 0.3509, x2 = 0.3509	–	54.2 ± 5.4
313.15 K, 100 kPa, x1 = 0.3868, x2 = 0.3509	–	75.3 ± 7.6
313.15 K, 100 kPa, x1 = 0.4189, x2 = 0.3509	–	104 ± 11
313.15 K, 100 kPa, x1 = 0.4478, x2 = 0.3509	–	144 ± 15
